{
  "source": "paper PMC12735921",
  "about": "“Evaluation of Antiproliferative Activity and Molecular Modeling Studies of Some Novel Benzimidazolone-Bridged Hybrid Compounds” (Pharmaceuticals, 2025)",
  "format_in_all_cases": "cell-based, human",
  "key": {"[1]": {"test_system": "HeLa cells", "experiment": "MTT cell viability assay, HeLa", "summary_of_the_method": "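Cells exposed to compounds at 0.5–200 µM for 48 h in DMEM with 10% FBS at 37 °C, 5% CO2; formazan dissolved in DMSO and read at 570 nm. Cytotoxicity relative to untreated control; IC50 from four-parameter logistic fit, mean of three independent measurements, triplicate samples.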"}, "[2]": {"test_system": "HEK 293 cells", "experiment": "MTT cell viability assay, non-cancerous HEK 293", "settings": "Homo sapiens, HEK293, 48 h, mean ± SD, n = 3", "summary_of_the_method": "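Cells grown in DMEM/10% FBS were seeded at 1 × 10^5 cells/mL and exposed to compounds at 0.5–200 µM for 48 h. Formazan was dissolved in DMSO and read at 570 nm, with cytotoxicity expressed relative to untreated control (0%). IC50 came from a four-parameter logistic fit, averaged over three independent runs.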"}, "[3]": {"test_system": "A549 cells", "experiment": "LDH leakage assay, A549", "settings": "A549, IC50 concentration of compound, 48 h; H2O2 positive control; mean ± SD, n = 3", "method": "One hundred microliters of culture medium was transferred to a new 96-well plate. One hundred microliters of LDH reaction solution was added to each well, and absorbance was measured at 490 nm using an ELISA plate reader (BMG Labtech, Ortenberg, Germany) after 30 min."}, "[4]": {"test_system": "A549 cells", "experiment": "Total oxidative status (TOS), A549", "settings": "A549, IC50 concentration of compound, 48 h; H2O2 250 µM positive control; mean ± SD, n = 3", "method": "TOS were evaluated using a commercially available kit (Rel Assay Diagnostics®, Gaziantep, Turkey) according to the manufacturer’s instructions. […] The TOS assay quantifies oxidizing agents based on their ability to convert an iron (II) ion chelator complex to iron (III) ions. The results were calibrated against hydrogen peroxide (H2O2, 250 µM) as a positive control for 48 h and expressed as µmol H2O2 equivalents per liter. The analysis was performed in three independent biological replicates (n = 3)."}, "[5]": {"test_system": "HeLa cells", "experiment": "Intracellular GSH/GSSG ratio, HeLa", "settings": "IC50 concentration of compound, 48 h, H2O2 positive control, mean ± SD, n = 3", "method": "(§1) Intracellular reduced (GSH) and oxidized (GSSG) glutathione levels were measured using the GSH/GSSG Ratio Detection Assay Kit (Cayman Chemical, Ann Arbor, MI, USA, Cat. No: 703002) according to the manufacturer’s protocol. […] After treatment, cells were washed with cold PBS and lysed with MES buffer provided in the kit.\n(§2) To prevent oxidation of GSH to GSSG during processing, samples were deproteinized using the supplied metaphosphoric acid solution and neutralized accordingly. Total glutathione and GSSG levels were measured separately by adding the appropriate buffers and reagents to the wells of a 96-well plate, followed by the addition of DTNB recycling reagent and glutathione reductase. Absorbance was read at 405 nm using a microplate reader (BMG Labtech, Germany). The amount of GSH was calculated by subtracting 2 × GSSG from the total glutathione, and the GSH/GSSG ratio was used to assess intracellular redox status."}, "[6]": {"test_system": "A549 cells", "experiment": "Intracellular GSH/GSSG ratio, A549", "settings": "A549, IC50 concentration of compound, 48 h; H2O2 positive control; mean ± SD, n = 3", "method": "as §1, §2"}, "[7]": {"test_system": "HeLa cells", "experiment": "Cell cycle analysis (PI staining, flow cytometry), HeLa", "settings": "IC50 concentration, 48 h, mean ± SEM, n = 3", "method": "Cell cycle distribution was assessed by propidium iodide (PI) staining and flow cytometry. HeLa, MCF-7, and A549 cells were seeded in 6-well plates at a density of 1 × 10^5 cells per well and allowed to attach overnight. […] Following exposure, both adherent and floating cells were collected, washed twice with cold phosphate-buffered saline (PBS, pH 7.4), and fixed overnight in 70% cold ethanol at 4 °C. After fixation, the cells were centrifuged and resuspended in 500 µL of PI/RNase staining solution containing 50 µg/mL PI and 100 µg/mL RNase A (Sigma-Aldrich®, St. Louis, MO, USA), followed by incubation in the dark for 30 min at 37 °C. The stained samples were analyzed using a Muse™ Cell Analyzer (Merck, Millipore, Germany) equipped with a 488 nm excitation laser and a 617 nm emission filter. A minimum of 10,000 events per sample were acquired after exclusion of debris and doublets via FSC-A vs. FSC-H gating. The DNA content histograms were generated automatically, and cell populations were expressed as percentages of G0/G1, S, and G2/M phases using the Muse™ Cell Cycle Analysis Software 1.5.0.0. All assays were conducted in triplicate biological repeats (n = 3), and results were reported as mean ± SEM."}},
  "note": "Several values for one entry are separate records, joined by “and”; a condition that tells them apart may be missing. Equal entries are not always repeated. Marks after values point to notes of the source that are not given here.",
  "data": [
    {"smiles": "O=C(O)Cn1c(=O)n(CC(=O)O)c2cc(Cl)c(Cl)cc21", "note": "[Compound 6, 2,2′-(5,6-Dichloro-2-oxo-1H-benzo[d]imidazole-1,3(2H)-diyl)diacetic Acid]", "values": [
      {"measurement": "IC50", "setting": "[1]; Homo sapiens, HeLa, MTT, 48 h, mean ± SD, n = 3", "value": "31.2 ± 1.8", "unit": "µM"},
      {"measurement": "HeLa Selectivity Index (SI)", "setting": "[1]; SI = IC50 (HEK 293)/IC50 (HeLa)", "value": 2},
      {"measurement": "IC50", "setting": "[2]", "value": "62.7 ± 3.62", "unit": "µM"},
      {"measurement": "LDH", "setting": "[3]", "value": "24.5 ± 2.0 µU/mL and 24.5 ± 2.0 ^a,b µU/mL"},
      {"measurement": "TOS", "setting": "[4]", "value": "7.3 ± 0.5 ^a,b µmol H2O2 eq/L"},
      {"measurement": "GSH/GSSG", "setting": "[5]", "value": "10.6 ± 1.1"},
      {"measurement": "GSH/GSSG", "setting": "[6]", "value": "11.2 ± 1.0 nmol/mg Protein and 11.2 ± 1.0 ^a,b nmol/mg Protein"},
      {"measurement": "cells in G0/G1 phase", "setting": "[7]", "value": "42.3 ± 2.3", "unit": "%"},
      {"measurement": "cells in G2/M phase", "setting": "[7]", "value": "32.9 ± 1.6", "unit": "%"},
      {"measurement": "cells in S phase", "setting": "[7]", "value": "24.8 ± 1.5", "unit": "%"}
    ]}
  ]
}
